# From patent US20030055065A1, “Tricyclic amide and urea compounds useful for inhibition of G-protein function and for treatment of proliferative diseases” (priority 1993, published 2003)
# Values joined by “and” are separate entries in the source; they are usually repeats but may differ in a detail not shown here. Identical values can stand only once.
# Biological target: T1, farnesyl protein transferase (FPT), partially purified from rat brain (Rattus norvegicus, UniProt Q02293+Q04631)
# T1 construct: were partially purified from rat brain by ammonium sulfate fractionation followed by Q-Sepharose
# T1 sequence (Q02293 whole entry, one chain of several): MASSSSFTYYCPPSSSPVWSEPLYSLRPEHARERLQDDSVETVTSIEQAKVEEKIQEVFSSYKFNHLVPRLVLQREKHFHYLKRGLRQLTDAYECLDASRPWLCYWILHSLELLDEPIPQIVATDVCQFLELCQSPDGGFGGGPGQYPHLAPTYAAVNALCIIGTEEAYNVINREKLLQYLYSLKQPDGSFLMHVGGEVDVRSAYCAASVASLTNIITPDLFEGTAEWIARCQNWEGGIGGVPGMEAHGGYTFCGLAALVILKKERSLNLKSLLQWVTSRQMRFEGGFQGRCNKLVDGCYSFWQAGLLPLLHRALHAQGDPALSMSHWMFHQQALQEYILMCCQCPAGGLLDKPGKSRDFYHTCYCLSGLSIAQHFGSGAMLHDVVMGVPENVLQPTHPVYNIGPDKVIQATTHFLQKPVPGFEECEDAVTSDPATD
# Assay: Inhibition of farnesyl protein transferase (transfer of [3H]farnesyl to Ras-CVLS)
# Format: biochemical
# Conditions: (3.3) μM
# Method: 1. In vitro enzyme assays: Inhibition of farnesyl protein transferase and geranylgeranyl protein transferase.
# Human farnesyl protein transferase was also expressed in E. coli, using cDNA clones encoding both the α and β subunits. […] Human farnesyl protein transferase was partially-purified from the soluble protein fraction of E. coli as described above. […] Two forms of val^12-Ha-Ras protein were prepared as substrates for these enzymes, differing in their carboxy terminal sequence. One form terminated in cysteine-valine-leucine-serine (Ras-CVLS) the other in cystein-valine-leucine-leucine (Ras-CVLL). Ras-CVLS is a substrate for the farnesyl protein transferase while Ras-CVLL is a substrate for geranylgeranyl protein transferase I. The cDNAs encoding these proteins were constructed so that the proteins contain an amino-terminal extension of 6 histidine residues. Both proteins were expressed in Escherichia coli and purified using metal chelate affinity chromatography. The radiolabelled isoprenyl pyrophosphate substrates, [^3H]farnesyl pyrophosphate and [3H]geranylgeranyl pyrophosphate, were purchased from DuPont/New England Nuclear.
# The reaction was allowed to proceed for 30 minutes at room temperature and then stopped with 0.5 ml of 4% sodium dodecyl sulfate (SDS) followed by 0.5 ml of cold 30% trichloracetic acid (TCA). Samples were allowed to sit on ice for 45 minutes and precipitated Ras protein was then collected on GF/C filter paper mats using a Brandel cell harvester. […] Percent inhibition was calculated relative to the DMSO vehicle control.
row,FPT inhibition at the concentration in parentheses,SMILES
1,10 (3.3),O=C(Cc1cc[nH]c(=O)c1)N1CCC(=C2c3ccc(Cl)cc3CCc3cc(Br)cnc32)CC1 [Example 411-EE]

# Same assay, conditions: FPT IC50, enzyme inhibition
row,SMILES,IC50 [µM]
1,O=C(Cc1ccc[n+]([O-])c1)N1CCN([C@@H]2c3ccc(Cl)cc3CCc3cccnc32)CC1 [Example 425-F],7

# Same assay, conditions: Ras-CVLS farnesylation, partially purified rat brain FPT; read-out: FPT IC50
row,SMILES,IC50
1,O=C(Cc1cccnc1)N1CCC(=C2c3ccc(Cl)cc3C(O)Cc3cccnc32)CC1 (stereo not drawn) [Example 284],4.3 µM
2,CC(C)(C)CC(=O)N1CCC(=C2c3ccc(Cl)cc3CCc3cccnc32)CC1 [Example 57],9.8 µM
3,O=C(Nc1cccnc1)N1CCC(=C2c3ccc(Cl)cc3C=Cc3cccnc32)CC1 [Example 277],2.3 µM
4,CN(C)c1ccc(C(=O)N2CCC(=C3c4ccc(Cl)cc4CCc4cccnc43)CC2)cc1 [Example 17],4.8 µM
5,CN1CCC(CC(=O)N2CCC(=C3c4ccc(Cl)cc4CCc4c3n(C)cc(Br)c4=O)CC2)CC1 [Example 410-M],~12 µM
6,CN1CCN(CC(=O)N2CCC(=C3c4ccc(Cl)cc4CCc4cccnc43)CC2)CC1 [Example 410-H],7 µM
7,O=C(Cc1cccnc1)N1CCC(=C2c3ccc(Cl)cc3CCc3c(O)ccnc32)CC1 [Example 252],7.2 µM
8,O=C(c1c[nH]c2ccccc12)N1CCC(=C2c3ccc(Cl)cc3CCc3cccnc32)CC1 [Example 30],5.7 µM
9,O=C1CCC(C(=O)N2CCC(=C3c4ccc(Cl)cc4CCc4cccnc43)CC2)O1 (stereo not drawn) [Example 39],13.4 µM
10,CC(=O)Nc1cnc2c(c1)CCc1cc(Cl)ccc1C2=C1CCN(C(=O)Cc2ccncc2)CC1 [Example 403],1000 µM
11,O=C(C1CCNCC1)N1CCC(=C2c3ccc(Cl)cc3CCc3cccnc32)CC1 [Example 100],4.5 µM
12,NC(=O)c1ccc2c(c1)CCc1cccnc1C2=C1CCN(C(=O)Cc2ccncc2)CC1 [Example 436-D],0.75 µM
13,O=C(Cc1ccncc1)N1CCC(=C2c3ccc(Cl)cc3CCc3c2ncc(Br)c3Cl)CC1 [Example 356],0.062 µM and 0.073 µM
14,O=C(c1ccccn1)N1CCC(=C2c3ccc(Cl)cc3CCc3cccnc32)CC1 [Example 29],8 µM
15,CNS(=O)(=O)c1ccc(C(=O)N2CCC(=C3c4ccc(Cl)cc4CCc4cccnc43)CC2)cc1 [Example 92],3.9 µM
16,CC(=O)N1CCC(=C2c3ccc(Cl)cc3CCc3c(Cl)ccnc32)CC1 [Example 135],7.7 µM
17,C[S+]([O-])c1ccnc2c1CCc1cc(Cl)ccc1C2=C1CCN(C(=O)Cc2cccnc2)CC1 (stereo not drawn) [Example 256],4.9 µM
18,O=C(c1cnc(O)nc1O)N1CCC(=C2c3ccc(Cl)cc3CCc3cccnc32)CC1 [Example 33],8.7 µM
19,O=C(c1ccc(NS(=O)(=O)C(F)(F)F)cc1)N1CCC(=C2c3ccc(Cl)cc3CCc3cccnc32)CC1 [Example 111],8.5 µM
20,O=C(Cc1cccnc1)N1CCC(=C2c3ccc(Cl)cc3CCc3c2ncc(Br)c3O)CC1 [Example 253],4.3 µM
21,O=C(O)c1ccc(C(=O)N2CCC(=C3c4ccc(Cl)cc4CCc4cccnc43)CC2)cc1 [Example 106],5.3 µM
22,O=C(c1ccccc1)N1CCC(=C2c3ccc(Cl)cc3CCc3cccnc32)CC1 [Example 54],5.3 µM
23,O=C(c1ccnc2ccccc12)N1CCC(=C2c3ccc(Cl)cc3CCc3cccnc32)CC1 [Example 38],12.1 µM
24,Cn1cc(C(=O)N2CCC(=C3c4ccc(Cl)cc4CCc4cccnc43)CC2)ccc1=O [Example 36],11.2 µM
25,CCN(CC)c1cnc2c(c1)CCc1cc(Cl)ccc1C2=C1CCN(C(=O)Cc2ccncc2)CC1 [Example 424-A],1000 µM
26,NCC(=O)N1CCC(=C2c3ccc(Cl)cc3CCc3cccnc32)CC1 [Example 118],22.3 µM
27,O=C(c1cnccn1)N1CCC(=C2c3ccc(Cl)cc3CCc3cccnc32)CC1 [Example 27],7.3 µM

# More lines, now with the values ahead:
row,IC50,SMILES
1,10.6 µM,CC(=O)N1CCC(=C2c3ccc(Cl)cc3CCc3cc(C)cnc32)CC1 [Example 64]
2,3.1 µM,CC(=O)N1CCCC(CC(=O)N2CCN(C3c4ccc(Cl)cc4CCc4cccnc43)CC2)C1 (stereo not drawn) [Example 205]
3,17.6 µM,CC(=O)N1CCC(=C2c3cc4ccccc4cc3CCc3cccnc32)CC1 [Example 71A]
4,0.59 µM,CC(C)(C(=O)N1CCC(=C2c3ccc(Cl)cc3CCc3cc(Br)cnc32)CC1)c1ccc[n+]([O-])c1 [Example 360]
5,2.5 µM,NCC(=O)N1CCC(CC(=O)N2CCN(C3c4ccc(Cl)cc4CCc4cccnc43)CC2)CC1 (stereo not drawn) [Example 433-C]
6,0.052 µM,CC1(C2CCN(C(=O)Cc3ccc[n+]([O-])c3)CC2)c2ccc(Cl)cc2CCc2cc(Br)cnc21 (stereo not drawn) [Example 410-C]
7,0.84 µM,O=C(Cc1cccnc1)N1CCC(C2c3ccc(Cl)cc3C=Cc3c(Cl)ccnc32)CC1 (stereo not drawn) [Example 273]
8,15 µM,O=C(c1cc[n+]([O-])cc1)N1CCC(=C2c3ccccc3CCc3ccccc32)CC1 [Example 151]
9,35.4 µM,CC(=O)N1CCC(=C2c3ccncc3CCc3cc(Cl)ccc32)CC1 [Example 143]
10,2.5 µM,C[C@H](N)C(=O)N1CCC(CC(=O)N2CCN(C3c4ccc(Cl)cc4CCc4cccnc43)CC2)CC1 (stereo partly drawn) [Example 433]
11,1.16 µM,CCc1cc2c(cc1Cl)C=Cc1cccnc1C2C1CCN(C(=O)Cc2ccncc2)CC1 (stereo not drawn) [Example 362]
12,29.6 µM,CC(=O)N1CCN(C2c3ccccc3CCc3ccccc32)CC1 [Example 153]
13,4.6 µM,O=C(Cc1cccs1)N1CCC(=C2c3ccc(Cl)cc3CCc3cccnc32)CC1 [Example 102]
14,11.6 µM,CC(=O)N1CCC(=C2c3ccc(Cl)cc3CCc3c(Cl)cc[n+]([O-])c32)CC1 [Example 74C]
15,4.3 µM,CC(=O)N1CCCC(C(=O)N2CCN(C3c4ccc(Cl)cc4CCc4cccnc43)CC2)C1 (stereo not drawn) [Example 194]
16,4.1 µM,O=C(C(=O)N1CCC(=C2c3ccc(Cl)cc3CCc3cccnc32)CC1)c1ccccc1 [Example 296]
17,3.2 µM,O=C(Nc1cccnc1)N1CCN([C@@H]2c3ccc(Cl)cc3CCc3cccnc32)CC1 [224 (6.10)]

# Same assay, conditions: Table 22; no key shown; presumably % inhibition (concentration in μM)
row,"FPT IC50 (μM) column, second line printed as 'x (y)'",SMILES
1,22 (4),CCN(CC)c1cnc2c(c1)CCc1cc(Cl)ccc1C2=C1CCN(C(=O)Cc2ccncc2)CC1 [Example 424-A]

# Same assay, conditions: at 10 μM
row,FPT inhibition [% @],SMILES
1,23,O=C(N[C@@H](Cc1ccccc1)C(=O)N1CCN(C2c3ccc(Cl)cc3CCc3cccnc32)CC1)OCc1ccccc1 (stereo partly drawn) [Example 213]

# Same assay, conditions: at 11.8 μM
row,SMILES,FPT inhibition [% at 11.8 μM]
1,O=C(Cc1c[nH]c2ccccc12)N1CCC(=C2c3ccc(Cl)cc3CCc3cccnc32)CC1 [Example 129],32

# Same assay, conditions: at 12.1 μM
row,FPT inhibition [% at 12.1 μM],SMILES
1,7,CC(=O)N1CCC(=C2c3ccc(Cl)cc3CCc3ccc[n+](C)c32)CC1 [Example 130]

# Same assay, conditions: at 12.6 μM
row,SMILES,FPT inhibition [% at 12.6 μM]
1,O=C1CCC(C(=O)N2CCC(=C3c4ccc(Cl)cc4CCc4cccnc43)CC2)N1 (stereo not drawn) [Example 123],23

# Same assay, conditions: at 13 μM
row,FPT inhibition [% @],SMILES
1,30,NC(Cc1ccccc1)C(=O)N1CCN(C2c3ccc(Cl)cc3CCc3cccnc32)CC1 (stereo not drawn) [Example 215]

# Same assay, conditions: at 13.4 μM
row,FPT inhibition [% at 13.4 μM],SMILES
1,16,O=C(c1cc[n+]([O-])cc1)N1CCC(=C2c3ccc(Cl)cc3CCc3ccc[n+]([O-])c32)CC1 [Example 131]

# Same assay, conditions: at 15.2 μM
row,FPT inhibition [% at 15.2 μM],SMILES
1,37,CC(=O)c1cnc2c(c1)CCc1cc(Cl)ccc1C2=C1CCN(C(C)=O)CC1 [Example 139]

# Same assay, conditions: at 16.9 μM
row,FPT inhibition [% at 16.9 μM],SMILES
1,38,CC(=O)N1CCC(C2c3ccc(Cl)cc3CCc3cccnc32)CC1 (stereo not drawn) [Example 150]

# Same assay, conditions: at 50 μM
row,FPT inhibition [% at 50 μM],SMILES
1,29,CC(=O)N1CCC(C2c3cc4ccccc4cc3CCc3ccc[n+]([O-])c32)CC1 (stereo not drawn) [Example 141]

# Same assay, conditions: enzyme inhibition; read-out: FPT IC50
row,SMILES,IC50 [µM]
1,O=C(Cc1ccncc1)N1CCC(=C2c3ccc(Cl)cc3CCc3cc(Cl)ccc32)CC1 [Example 411-L],0.82
2,O=C(Cc1ccnc(OCc2ccccc2)c1)N1CCC(=C2c3ccc(Cl)cc3CCc3cc(Br)cnc32)CC1 [Example 411-DD],3.1
3,CNC(=O)N1CCCC(CC(=O)N2CCN(C3c4ccc(Cl)cc4CCc4cccnc43)CC2)C1 (stereo not drawn) [Example 431-G],7
4,CCCCNc1c(Br)cnc2c1CCc1cc(Cl)ccc1C2=C1CCN(C(=O)Cc2ccncc2)CC1 [Example 400-M],0.9
5,CN1CCC(CC(=O)N2CCC(=C3c4ccc(Cl)cc4CCc4cc(Cl)cnc43)CC2)CC1 [Example 411-X],0.45
6,CC(=O)ON=C1Cc2cccnc2C(=C2CCN(C(=O)Cc3ccncc3)CC2)c2ccc(Cl)cc21 [Example 420],0.23
7,O=C(Cc1ccncc1)N1CCC(=C2c3ccc(Cl)cc3CCc3cc(F)cnc32)CC1 [Example 411-M],0.65
8,COC(=O)N1CCCC(CC(=O)N2CCN(C3c4ccc(Cl)cc4CCc4cccnc43)CC2)C1 (stereo not drawn) [Example 430-A],7

# Second part, the molecule after the results:
row,IC50 [µM],SMILES
1,0.88,CCCNC(=O)N1CCC(CC(=O)N2CCN(C3c4ccc(Cl)cc4CCc4cccnc43)CC2)CC1 (stereo not drawn) [Example 431-C]
2,1.5,O=C(Cc1ccc[n+]([O-])c1)N1CCC(C2c3ccc(Cl)cc3CCc3cc(Br)cnc32)CC1 (stereo not drawn) [Example 411-Z]
3,0.64,CN1CCC(CC(=O)N2CCN([C@H]3c4ccc(Cl)cc4CCc4cccnc43)CC2)CC1 [Example 425-N]
4,1.9,O=C(Nc1ccccc1)N1CCC(=C2c3ccc(Cl)cc3CCc3c(Cl)ccnc32)CC1 [Example 414-A]
5,1.28,O=C(Cc1ccncc1)N1CCC(=C2c3cc([N+](=O)[O-])c(Cl)cc3CCc3cccnc32)CC1 [Example 411-F]
